# Results: patent publication US20180153990A1, “PCA1 PROTEIN AND METHODS OF TREATING PNEUMOCYSTIS PNEUMONIA INFECTION” (priority 2016, published 2018)
# How the values were obtained:
# Pneumocystis = experiment: Pcp-IRIS model: physiologic assessment (body weight, lung compliance, lung resistance); assay type: in vivo, SCID mice; details: treatment started when mice showed clinical signs of Pcp-IRIS
# Text: Severe combined immune deficient (SCID) mice on a C.B-17 background are maintained in a specific pathogen-free colony at University of Rochester Medical Center. For these studies, 6-8 week old female mice were infected with Pneumocystis by intratracheal inoculation with 1×10^5 Pneumocystis cysts and then also cohoused with other Pneumocystis-infected SCID mice to ensure infection. The mice were fed acidified water and sterile food. Immune reconstitution (IR) was initiated three weeks after infection by giving mice an intraperitoneal (i.p.) injection of 5×10^7 splenocytes from wild-type C.B-17 mice. All animals involved were treated ethically according to the guidelines from the Association for Assessment and Accreditation of Laboratory Care International (AAALAC International), and the protocols used were approved by the University Committee on Animal Resources.
# Lung resistance and compliance were measured on living ventilated mice using a Harvard rodent ventilator (Harvard Apparatus, Southnatic, Mass.) and a whole body plethysmograph (BUXCO Electronics Inc., Wilmington, N.C.) as previously described (Wang et al., “Immune Modulation With Sulfasalazine Attenuates Immunopathogenesis but Enhances Macrophage-Mediated Fungal Clearance During Pneumocystis Pneumonia,” PLoS Pathog. 6:e1001058 (2010), which is hereby incorporated by reference in its entirety). […]
# alveolar macrophages = experiment: Effect of antibody administration during Pcp on alveolar macrophage phenotype (iNOS M1 / YM-1 M2 staining); assay type: in vivo, SCID mice
# Description: For this experiment the Pneumocystis-infected mice were treated as above except that they received only 2 doses of specific antibody, nonspecific antibody or sulfasalazine on days 1 and 3 and then sacrificed later in the day on day 3. BALF aliquots containing 5×10^4 cells in HBSS were cytospun onto glass slides, fixed with 3% paraformaldehyde in PBS for 15 minutes at room temperature; rinsed 3× in PBS; and permeabilized with 0.02% Triton X-100 in PBS for 15 minutes at room temperature. The slides were then rinsed 3× in PBS, blocked with species specific 5% normal serum (normal goat serum, MP Biomedical; normal donkey serum, EMD Millipore) in 0.05% Tween-20 in PBS (PBS-T) for 1 hr at room temperature and rinsed 3× in PBS-T. Alveolar macrophages were identified by staining with fluorescein labeled primary antibody to CD11c. Staining with antibody to iNOS was used to identify M1 macrophages while staining with antibody to YM-1 was considered a marker for M2 macrophages (Abcam and Stemcell).
# To test the effect of immune modulation, by administration of sulfasalazine or passive immunization, on macrophage phenotype during response to Pneumocystis, these agents or control nonspecific antibody were administered and alveolar macrophages were harvested after 3 days.
smiles,measurement,setting,value
"O=C(O)c1cc(/N=N/c2ccc(S(=O)(=O)Nc3ccccn3)cc2)ccc1O [SSZ, sulfasalazine]","severity of Pcp (recovery of body weight, pulmonary function)",Pneumocystis,reduced severity of Pcp
same,M1 phenotype alveolar macrophages,alveolar macrophages; Treatment Day 3,200 per 300 macrophages counted
same,M2 phenotype alveolar macrophages,alveolar macrophages; Treatment Day 3,100 per 300 macrophages counted
same,proportion of M2 type macrophages in the alveolar space,alveolar macrophages; after 3 days,increase
